Test results reported in patent publication US20130252983A1, “ACTIVATING PHOSPHORYLATION SITE ON GLUTAMINASE C” (CORNELL UNIVERSITY, priority 2010, published 2013).
“Also recorded” adds a separate entry of the source.

What was measured:
[1] = test system: NIH 3T3 cells stably expressing Cdc42(F28L), Rac(F28L), RhoC(F30L); experiment: Soft-agar colony formation of cells expressing activated Rho GTPase mutants; format: cell-based, mouse; details: 10 μM, 14 days
Experimental: (§1) FIGS. 2A-G illustrate effects of 968 on the transforming activity of constitutively active Rho GTPases and human breast cancer cells. […] Cells were scored after 14 days and plotted as the percentage of the total number of colonies greater than 50 μm in diameter. Data represent the average of 3 experiments (±s.d.). […] Data represent the average of 3 experiments (±s.d.). […] Data represent the average of 3 experiments (±s.d.). […] After 24 hours at 37° C., the migratory cells were fixed, stained with GIEMSA, and counted. Data represent the average of 3 experiments (±s.d.). […] Data represent the average of 3 experiments (±s.d.). […] Data represent the average of 3 experiments (±s.d.). […] Data represent the average of 3 experiments (±s.d.).

[2] = test system: MDA-MB231 cells; experiment: Soft-agar colony formation, MDA-MB231; format: cell-based, human; details: 10 μM
Experimental: as §1

[3] = molecular target: T1, V5-tagged wild-type GAC (Mus musculus, UniProt D3Z7P3); experiment: Glutaminase activity of V5-GAC immunoprecipitated from treated Dbl-transformed cells; format: cell-based; details: 10 μM, 48 hours
T1 construct: expressed in transfected cells; host or cells: NIH 3T3 cells (stably expressing Dbl, or parental), transient transfection
T1 sequence (D3Z7P3 55-603 isoform D3Z7P3-2 limits assumed): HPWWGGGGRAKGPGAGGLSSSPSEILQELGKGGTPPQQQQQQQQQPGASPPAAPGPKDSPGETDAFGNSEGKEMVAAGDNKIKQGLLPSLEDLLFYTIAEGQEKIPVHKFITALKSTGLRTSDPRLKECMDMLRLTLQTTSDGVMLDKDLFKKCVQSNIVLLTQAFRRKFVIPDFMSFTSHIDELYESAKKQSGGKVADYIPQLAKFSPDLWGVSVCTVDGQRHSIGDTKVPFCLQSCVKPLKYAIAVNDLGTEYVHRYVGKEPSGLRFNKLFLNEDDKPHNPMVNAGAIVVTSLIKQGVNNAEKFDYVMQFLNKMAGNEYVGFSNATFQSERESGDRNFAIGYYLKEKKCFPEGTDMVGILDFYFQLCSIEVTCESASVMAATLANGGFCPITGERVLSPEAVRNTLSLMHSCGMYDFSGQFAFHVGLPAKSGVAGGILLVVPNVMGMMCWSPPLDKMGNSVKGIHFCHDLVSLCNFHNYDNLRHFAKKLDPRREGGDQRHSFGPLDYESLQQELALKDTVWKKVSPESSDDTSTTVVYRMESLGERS
Source text: FIGS. 4A-E illustrate the role of glutaminase C activity in cellular transformation. […] Data represent the average of 3 experiments (±s.d.). […] Data represent the average of 3 experiments (±s.d.). […] 100% represents the activity measured in untreated Dbl-transformed cells. The data represent the average of 2 experiments. […] 100% represents the activity measured in untreated SKBR3 cells. The data represent the average of 2 experiments. […] Data represent the average of 3 experiments (±s.d.).
NIH 3T3 cells stably expressing oncogenic Dbl were transiently transfected with DNA encoding VS-tagged GAC, and cells were treated with either 968 or BA-968 (10 μM) as indicated for 48 hours. The cells were then harvested and the ectopically expressed GAC was isolated by immunoprecipitation via the V5 tag. The samples were then assayed for glutaminase activity in the absence of phosphate (top panel) and the relative expression levels of V5-GAC was determined by Western blotting using an anti-V5 antibody (bottom panel).
Next the effect of the substitution of an alanine for a serine at amino acid 103 on the enzymatic activity of GAC was examined, as well as its sensitivity to the small molecule, 968. […] Following transfection, the cells were treated for 48 hours with 968 (10 μM) and then harvested. […]

CN(C)c1ccc(C2Nc3ccc4ccccc4c3C3=C2C(=O)CC(C)(C)C3)cc1Br (stereo not shown) [Compound 968, 5-[3-bromo-4-(dimethylamino)phenyl]-2,2-dimethyl-2,3,5,6-tetrahydrobenzo[a]]
colony formation in soft-agar [1]: blocking their ability | colony formation in soft agar [2]: inhibits the ability | basal glutaminase activity of wild-type GAC [3]: susceptible to treatment | GA activity of immunoprecipitated V5-GAC ([3]; absence of phosphate): inhibited; also recorded: effective inhibitors of GAC activity
